This is an account of results in paper PMC3681905, “Anti-Influenza Activity of C60 Fullerene Derivatives” (PLoS ONE, 2013).

One data set concerns MDCK cells. The note with it: 12.5 to 100 µM, 24 h post-incubation.
Data set [1] relates to influenza A virus A/PR/8/34 (H1N1). Put plainly: microbe, parasite or virus in culture. The following applies: for IC50: read-out: IC50 H1N1 PR8 strain. Format: cell-based.
The test system of data set [2] is influenza A virus A/Aichi/2/68 (H3N2). As to the kind of experiment: microbe, parasite or virus in culture. The following applies: for IC50: read-out: IC50 H3N2 Aichi strain. The format is cell-based.
Data set [3] has as its system influenza A virus (A/PR/8/34 (H1N1)). The format is cell-based. The following applies: 100 µM, A/PR8/34 (H1N1), western blotting.
The target in data set [4] is full-length PA protein of influenza A RNA polymerase (Influenza A virus, UniProt P03433). Put plainly: in vitro PA endonuclease assay with recombinant full-length PA protein (M13 mp18 digestion). Format: biochemical, influenza A virus (A/PR/8/34 (H1N1)). The following applies: 10 µM fullerene derivative; Fig. 3C. The text has this: We expressed the recombinant full-length PA protein by using a baculovirus to infect Sf9 insect cells (Fig. 3A) and purified it using a Ni-agarose and HiTrap-Q column (Fig. 3B). […] Then, we tested the 12 fullerene derivatives using this same assay. The fullerene derivatives 2–5, 7, 8, 10, and 11 inhibited the endonuclease activity of full-length PA (Fig. 3C), which is consistent with the results for the PA endonuclease domain (Fig. 2C). The M13 mp18 band in the no. 12-treated lane was degraded (Fig. 3C lane 14), the band in the no.
The cDNA fragment corresponding to the full-length protein-coding region of PA was amplified by PCR [38] from pBMSA-PA using the primers PA_start_TOPO ([…]), PA stop ([…]), PA_mid_anti ([…]), and PA_mid_TOPO ([…]). The amplified product was then subcloned into the pENTR/D-TOPO plasmid (Gateway®, Life Technologies™, Carlsbad, CA, USA) using topoisomerase I cloning. The resulting construct was then converted to pDEST10-PA using the clonase (Fig. 3A). The plasmid was transfected into Sf9 insect cells using the helper virus. The resultant baculovirus was again transfected into Sf9 cells. The expressed full-length PA protein was purified using Ni^2+-agarose and a HiTrap Q FF column (GE Healthcare) with the AKTA prime plus system (Fig. 3B).
(§1) Influenza A RNA polymerase PA endonuclease activity assays were performed as described by Dias et al. with some modifications [12]–[16]. Briefly, the pH was lowered from 8.0 to 7.3, and 1 µg M13 mp18 single-stranded circular phage DNA was used as the substrate. A total of 0.25 µg recombinant PA endonuclease domain or full-length PA protein were added to 100 µL assay buffer for each reaction (the final concentration of the protein was approximately 0.1 µM). For the fullerene derivative nuclease assay, no PA protein was added at this step. The fullerene derivatives (summarized in Fig. 1) were then added to the reaction, and the products were analyzed by agarose electrophoresis and stained with ethidium bromide.

Data set [5] concerns the target PA N-terminal endonuclease domain (residues 1–220) of influenza A RNA polymerase (Influenza A virus, UniProt P03433). As to the kind of experiment: in vitro PA endonuclease assay with recombinant PA endonuclease domain (M13 mp18 digestion, agarose electrophoresis). Format: biochemical, influenza A virus (A/PR/8/34 (H1N1)). The following applies: 10 µM fullerene derivative, Fig. 2C. Here is the method:
For the in vitro PA endonuclease assay, we expressed and purified a recombinant influenza PA endonuclease domain (1–220 residues; Fig. 2A, B) using bacteria as described previously [15]–[17]. For the assay, we incubated 0.1 µM recombinant PA endonuclease domain with 1 or 10 µM of each fullerene derivative (Fig. 2C). The PA endonuclease domain digested M13 mp18 circular single-stranded DNA in vitro (Fig. 2C, lanes 1 and 2) [12]–[16], and we investigated whether any of the fullerene derivatives could inhibit this activity. […] This is the first study to report that fullerene derivatives can inhibit the activity of influenza enzymes. Fullerene derivative no.
The influenza A virus (A/PR/8/34 (H1N1)) RNA polymerase PA plasmid, pBMSA-PA, was obtained from the DNA bank at Riken BioResource Center (Tsukuba, Japan; originally deposited by Susumu Nakada). The cDNA fragment corresponding to the PA N-terminal endonuclease domain (residues 1–220; Fig. 2A) was amplified by polymerase chain reaction (PCR) from pBMSA-PA. The amplified product was subcloned into the pET28a (+) plasmid (Novagen, Madison, WI, USA). The induction of recombinant protein expression was achieved by the addition of isopropyl-D-thiogalactopyranoside, and this was followed by purification using Ni^2+-agarose. The recombinant PA endonuclease domain protein was further purified to near homogeneity (Fig. 2B) using a HiTrapQ-FF column (GE Healthcare, Buckinghamshire, UK).
as §1

Data set [6] has as its system M13 mp18 single-stranded circular phage DNA. Put plainly: fullerene derivative nuclease assay in the absence of PA protein. The following applies: 10 µM; absence of PA endonuclease; M13 mp18 substrate; Fig. 4. The format is biochemical.
Where [7] appears, read: Influenza A virus, H3N2, MDCK, 24 h.
The mark [8] stands for this setting: 0.1 µM recombinant PA endonuclease domain.

Where two headings read alike, the source gives them in different places.

In the case of `COC1Cc2cccc(c2)Oc2c(O)cccc2CCc2ccc(cc2)Oc2cc1cc(O)c2O` (centres unmarked) [Marchantin E, reference compound], the “cell viability vs DMSO-treated cells (MTT)” value in the data set with MDCK cells was “not significantly different”. In addition, the IC50 in data set [1] (Influenza A virus, MDCK, 24 h) stood at 43 µM; in data set [2] (setting [7]), 53 µM. Further, in data set [3], the “expression levels of influenza A NP and NS1 proteins compared with DMSO-treated cells” value was “reduced”.
As to `Oc1cc2c(cc1O)CC13c4c5c6c7c8c9c(c%10c%11c1c1c4c4c%12c5c5c6c6c8c8c%13c9c9c%10c%10c%11c%11c1c1c4c4c%12c%12c5c5c6c8c6c8c%13c9c9c%10c%10c%11c1c1c4c4c%12c5c6c5c8c9c%10c1c45)C73C2` (centres unmarked) [no. 1, 1,4-dihydro-6,7-dihydroxy [60]fullerenonaphthlene], the solubility in water result in “solubility in water” is on record as “relatively low”. Moreover, in data set [1], the “IC50 H1N1 PR8 strain” value was “could not be calculated” and the “number of NP-positive cells in comparison with the control (DMSO)” value (“number of NP-positive cells … (DMSO)” below) is given as “comparable”. Moreover, in data set [2], the “IC50 H3N2 Aichi strain” value was “could not be calculated” and the “number of NP-positive cells in comparison with the DMSO” value is recorded as “comparable”. In data set [4], the “inhibition of the endonuclease activity of full-length PA (M13 mp18 band)” value (from here on “inhibition … (M13 mp18 band)”) is “slightly inhibited”. Besides, the “expression levels of influenza A NP and NS1 proteins compared with DMSO-treated cells” value in data set [3] is “comparable”. In addition, the “inhibition of the digestion of M13 mp18 by the PA endonuclease domain” value (shortened to “inhibition of the digestion of M13 mp18”) in data set [5] (setting [8]) was “no or weak inhibitory activity”.
In the case of `O=C(O)CN1C(C(=O)O)C23c4c5c6c7c8c9c(c%10c%11c2c2c4c4c%12c5c5c6c6c8c8c%13c9c9c%10c%10c%11c%11c2c2c4c4c%12c%12c5c5c6c8c6c8c%13c9c9c%10c%10c%11c2c2c4c4c%12c5c6c5c8c9c%10c2c45)C73C1C(=O)O` (centres unmarked) [no. 4, 1-carboxymethyl [60]fullerenopyrrolidine-2,5-dicarboxylic acid], the IC50 in data set [1] (Influenza A virus, MDCK, 24 h) stood at 70 µM; in data set [2] (setting [7]), 91 µM.
For the compound `CC(C)C1NC(C(=O)O)C23c4c5c6c7c8c9c(c%10c%11c2c2c4c4c%12c5c5c6c6c8c8c%13c9c9c%10c%10c%11c%11c2c2c4c4c%12c%12c5c5c6c8c6c8c%13c9c9c%10c%10c%11c2c2c4c4c%12c5c6c5c8c9c%10c2c45)C713` (centres unmarked) [no. 5, 5-isopropyl [60]fullerenopyrrolidine-2-carboxylic acid], the IC50 is 37 µM in data set [1] (Influenza A virus, MDCK, 24 h) and more than 100 µM in data set [2] (setting [7]). Also, the “expression levels of influenza A NP and NS1 proteins compared with DMSO-treated cells” value in data set [3] is listed as “reduced”.
With `O=C(O)CN1CCN(CC(=O)O)C23c4c5c6c7c8c9c(c%10c%11c2c2c4c4c%12c5c5c6c6c8c8c%13c9c9c%10c%10c%11c%11c2c2c4c4c%12c%12c5c5c6c8c6c8c%13c9c9c%10c%10c%11c2c2c4c4c%12c5c6c5c8c9c%10c2c45)C713` (centres unmarked) [no. 7, [60]fullerenopiperazine-1,4-diacetic acid], the IC50 in data set [1] (Influenza A virus, MDCK, 24 h) was more than 100 µM; in data set [2] (setting [7]), more than 100 µM. Besides, in data set [4], the “inhibition … (M13 mp18 band)” value was “inhibited”. Further, in data set [3], the “expression levels of influenza A NP and NS1 proteins compared with DMSO-treated cells” value is listed as “slightly reduced”. Moreover, in data set [5] (setting [8]), the “inhibition of the digestion of M13 mp18” value is recorded as “significantly inhibited”.
As for `CCN1C(C(=O)O)C23c4c5c6c7c8c9c(c%10c%11c2c2c4c4c%12c5c5c6c6c8c8c%13c9c9c%10c%10c%11c%11c2c2c4c4c%12c%12c5c5c6c8c6c8c%13c9c9c%10c%10c%11c2c2c4c4c%12c5c6c5c8c9c%10c2c45)C73C1C(=O)O` (centres unmarked) [no. 9, 1-ethyl [60]fullerenopyrrolidine-2,5-dicarboxylic acid], in data set [1], the “IC50 H1N1 PR8 strain” value is on record as “could not be calculated” and the “number of NP-positive cells … (DMSO)” value is reported as “comparable”. Moreover, in data set [2], the “IC50 H3N2 Aichi strain” value is reported as “could not be calculated” and the “number of NP-positive cells in comparison with the DMSO” value is given as “comparable”. For the same compound, the “inhibition … (M13 mp18 band)” value in data set [4] is reported as “slightly inhibited”. Moreover, the “expression levels of influenza A NP and NS1 proteins compared with DMSO-treated cells” value in data set [3] is “comparable”. The “inhibition of the digestion of M13 mp18” value in data set [5] (setting [8]) is recorded as “no or weak inhibitory activity”.
In the case of `CCOC(=O)CN1C(C(=O)O)C23c4c5c6c7c8c9c(c%10c%11c2c2c4c4c%12c5c5c6c6c8c8c%13c9c9c%10c%10c%11c%11c2c2c4c4c%12c%12c5c5c6c8c6c8c%13c9c9c%10c%10c%11c2c2c4c4c%12c5c6c5c8c9c%10c2c45)C73C1C(=O)OCC` (centres unmarked) [no. 10, 1-ethoxycarbonylmethyl [60]fullerenopyrrolidine-2,5-dicarboxylic acid 2-ethyl ester], the “number of NP-positive cells … (DMSO)” value in data set [1] was “slightly decreased”. For the same compound, the IC50 is more than 100 µM in data set [1] (Influenza A virus, MDCK, 24 h) and more than 100 µM in data set [2] (setting [7]). Also, the “inhibition … (M13 mp18 band)” value in data set [4] is “inhibited”. Further, in data set [3], the “expression levels of influenza A NP and NS1 proteins compared with DMSO-treated cells” value is listed as “slightly reduced”. In addition, the “inhibition of the digestion of M13 mp18” value in data set [5] (setting [8]) is “significantly inhibited”.
As to `O=C(O)C1NC(c2ccccc2)C23c4c5c6c7c8c9c(c%10c%11c2c2c4c4c%12c5c5c6c6c8c8c%13c9c9c%10c%10c%11c%11c2c2c4c4c%12c%12c5c5c6c8c6c8c%13c9c9c%10c%10c%11c2c2c4c4c%12c5c6c5c8c9c%10c2c45)C713` (centres unmarked) [no. 11, 5-phenyl [60]fullerenopyrrolidine-2-carboxylic acid], the “number of NP-positive cells … (DMSO)” value in data set [1] is recorded as “significantly reduced”. Further, the IC50 was 44 µM in data set [1] (Influenza A virus, MDCK, 24 h) and more than 100 µM in data set [2] (setting [7]). In data set [4], the “inhibition … (M13 mp18 band)” value is given as “inhibited”. For the same compound, the “expression levels of influenza A NP and NS1 proteins compared with DMSO-treated cells” value in data set [3] is reported as “reduced”. Also, the “inhibition of the digestion of M13 mp18” value in data set [5] (setting [8]) was “significantly inhibited”.
`CN1CC23c4c5c6c7c8c9c(c%10c%11c2c2c4c4c%12c5c5c6c6c8c8c%13c9c9c%10c%10c%11c%11c2c2c4c4c%12c%12c5c5c6c8c6c8c%13c9c9c%10c%10c%11c2c2c4c4c%12c5c6c5c8c9c%10c2c45)C73C1c1cc[n+](C)cc1` (centres unmarked) [no. 12, 4-(1′-methyl [60]fullerenopyrrolidin-2′-yl)-1-methylpyridinium iodide]: the “nuclease activity of the fullerene derivative by itself” value in data set [6] is on record as “weaker nuclease activity”. For the same compound, in data set [1], the “number of NP-positive cells … (DMSO)” value is given as “significantly reduced” and the IC50 was found to be 78 µM. Further, the half-maximal inhibitory concentration (IC50) in data set [2] stood at 63 µM. Moreover, the “inhibition … (M13 mp18 band)” value in data set [4] is recorded as “degraded”. Moreover, the “expression levels of influenza A NP and NS1 proteins compared with DMSO-treated cells” value in data set [3] is recorded as “slightly reduced”. Further, in data set [5] ([…]), the “inhibition of the digestion of M13 mp18” value is reported as “slightly inhibited”.
For “[60]fullerenotricyclopropane-1,1,1′,1′,1′′,1′′-hexacarboxylic acid [no. 8]”, the IC50 in data set [1] is 37 µM; in data set [2] it was more than 100 µM. Further, the “inhibition … (M13 mp18 band)” value in data set [4] is given as “inhibited”. Moreover, the “expression levels of influenza A NP and NS1 proteins compared with DMSO-treated cells” value in data set [3] is given as “slightly reduced”. For the same compound, the “inhibition of the digestion of M13 mp18” value in data set [5] (setting [8]) is on record as “significantly inhibited”.
